Eleven compounds from PubChem BioAssay (NCI) can be followed below.

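96-well plates; 48 h exposure; 5 concentrations. Endpoints by linear interpolation between flanking doses. Not reached: highest tested concentration assigned. Abbreviation: GI50, concentration required for 50% inhibition of growth. TGI: concentration producing complete growth inhibition.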 Bounds are passed on as bounds.

What all share (experiment): inhibition of tumour cell growth, NCI panel, 48 h
The subject of test [1] is RPMI-8226 leukemia.
For test [2], the system named is LOX IMVI melanoma.
Test [3] relates to MOLT-4 leukemia.
The test system of test [4] is ACHN renal.
The test system of test [5] is HL-60(TB) leukemia.
Test [6] deals with UACC-62 melanoma.
The test system of test [7] is OVCAR-3 ovarian.
The test system of test [8] is HCT-15 colon.
Test [9] deals with T-47D breast.
For test [10], the system named is A498 renal.

For `COc1cc(C2C(C(=O)O)=C(COC(C)=O)Oc3cc4c(cc32)OCO4)cc(OC)c1OC` (centres undefined), the TGI in test [1], in [2], in test [3], in [4], in test [5] and in test [6] was more than 100 µM throughout. Further, the TGI in test [7] and in [8] was more than 100 µM throughout.

With `O=C1/C(=C/c2ccc(Cl)cc2)N=C(c2ccccc2)N1CCc1cccs1`, the GI50 in test [1] is 14.5 µM; in [2], 8.52 µM; in [3] it was 16.5 µM; in [4], 28.8 µM; in test [9], 18.2 µM; in test [5], 21.4 µM. Besides, the GI50 is 13.8 µM in [6], 16.7 µM in [10], 16.7 µM in test [7] and 19.3 µM in test [8]. Moreover, the TGI was 83.4 µM in test [1]; more than 100 µM in test [2]; more than 100 µM in test [3]; more than 100 µM in test [4]; more than 100 µM in test [9]; 90.2 µM in [5]. Besides, the TGI in [6] was 63.2 µM; in [10], more than 100 µM; in test [7] it was more than 100 µM; in [8], more than 100 µM.

With `N=C(N)SCc1ccc(Cl)cc1Cl` (tested in a mixture with another compound), the TGI in test [1] turned out to be 12.7 µM; in test [2], 38.8 µM; in [3], 35.4 µM; in [4], 23.1 µM; in test [9], 39 µM; in test [5] it was 22.4 µM. Further, the TGI in test [6] turned out to be 28.3 µM; in [10] it was 27.5 µM; in test [7] it was 28.1 µM; in [8], 35.1 µM.

As to `CCCCCCOP(=O)(OCCCCCC)C(NC(=O)OCC)(C(F)(F)F)C(F)(F)F`, the TGI is more than 100 µM in [1]; 56.1 µM in test [2]; more than 100 µM in test [3]; more than 100 µM in test [4]; more than 100 µM in test [9]; more than 100 µM in test [5]. In addition, the TGI in test [6], in test [10], in test [7] and in [8] was more than 100 µM each time.

In the case of `CO/N=C(\C)COc1ccc2c(=O)c(-c3ccccc3)coc2c1`, the GI50 in test [1] is more than 100 µM; in [2] it was 42.5 µM; in [3], more than 100 µM; in test [4], 19.2 µM; in test [9], 17.3 µM; in test [5], 37.7 µM. Further, the GI50 in [6] is 26.3 µM; in test [7], 30.2 µM; in test [8], 40.1 µM. In addition, the TGI in test [1] is more than 100 µM; in [2], more than 100 µM; in test [3], more than 100 µM; in test [4], 38.8 µM; in [9], 48.6 µM; in test [5] it was more than 100 µM. The results for the TGI in test [6], in test [7] and in test [8] were 93.6 µM, 74.2 µM and more than 100 µM, respectively.

Turning to `CN(C)c1ccc(C(Cc2ccc3ccccc3n2)Cc2ccc3ccccc3n2)cc1`, in test [9], the GI50 is 1.71 µM and the TGI is more than 100 µM. Further, in test [6], the GI50 is 3.77 µM and the TGI was more than 100 µM.

For the compound `CCOC(=O)C(O)(NC(=O)c1ccccc1F)C(F)(F)F` (centres undefined), the TGI in [1], in test [2], in test [3], in test [4], in test [9] and in test [5] was more than 100 µM throughout. Also, the TGI in test [6], in test [7] and in test [8] was more than 100 µM in each case.

On to `CC(C)C1=CCC2C(=C1)CCC1C(C)(C(=O)O)CCCC21C` (centres undefined) (tested in a mixture with another compound), for which the TGI was 70.2 µM in test [1]; more than 100 µM in test [2]; more than 100 µM in test [3]; more than 100 µM in [4]; more than 100 µM in [9]; more than 100 µM in [5]. Also, the TGI in test [6], in test [10], in test [7] and in test [8] was more than 100 µM throughout.

In the case of `O=C(O)c1cn2c3c(cc(N4CCN(CCO)CC4)cc3c1=O)SCC2`, the TGI in test [1], in test [2], in test [3], in test [5], in test [6] and in test [10] was more than 100 µM throughout. For the same compound, the TGI in test [7] and in test [8] was more than 100 µM throughout.

For `CNC(=O)N(C)COC`, the TGI in test [1], in [2], in [3], in test [4], in [5] and in [6] was more than 100 µM throughout. The TGI in test [10], in [7] and in test [8] was more than 100 µM each time.

As for `Cc1c2cnccc2c(C)c2c1c1ccccc1n2CCCCCCNCc1ccccc1`, the TGI in test [1] was 3.44 µM; in test [2], 3.81 µM; in test [3] it was 0.7 µM; in test [5] it was 9.35 µM; in test [6], 4.16 µM; in test [10], 3.85 µM. In addition, the TGI in [7] was 4.01 µM; in test [8], 3.25 µM.
